The values that follow come from patent US5891924A, “Curcumin (diferuloylmethane) inhibition of NFκB activation” (Research Development Foundation, priority 1996, dated 1999).

The test system of one experiment is IκBα. The experiment is described as follows: Western blot for TNF-induced phosphorylation and degradation of IκBα in ML-1a cells. The format is cell-based, human. Conditions: curcumin 50 μM 60 minutes pretreatment, TNF 0.1 nM different times, cytosolic fraction, FIG. 6A. How it is done: ML-1a (2×10^6 /ml) pretreated (for 60 minutes at 37° C.) with or without curcumin (50 μM) were incubated for different times with TNF (0.1 nM), and then assayed for IκBα (FIG. 6A) and for p65 (FIG. 6B) in cytosolic fractions by western blot analysis as described below. ML-1a (2×10^6 /ml) pretreated (for 60 minutes at 37° C.) with curcumin were incubated with TNF (0.1 nM) for 30 minutes. Nuclear and cytoplasmic extracts were assayed by western blot analysis for p65. The arbitrary units represent the relative amounts of the respective proteins as described below.
After the NF-κB activation reaction described above, postnuclear extracts were resolved on 10% SDS-polyacrylamide gels for IκBα. To determine p65 levels, nuclear and post nuclear (cytoplasmic) extracts were resolved on 8% SDS-polyacrylamide gels. After the gels, the proteins were electrotransferred to nitrocellulose filters, probed with a rabbit polyclonal antibody against IκBa or against p65, and detected by chemiluminescence (ECL-Amersham) (22). The bands obtained were quantitated using Personal Densitometer Scan v1.30 using Image Quanta software version 3.3 (Molecular Dynamics, Sunnyvale, Calif.).
The translocation of NF-κB to the nucleus is preceded by the phosphorylation and proteolytic degradation of IκBα (26). […]

For another experiment, the system named is Sp1. Briefly: EMSA of Sp1 transcription factor in curcumin-treated cells. The experiment is classed as cell-based, human. The following applies: cells treated with different concentrations of curcumin 60 minutes at 37° C., FIG. 4. Background: A gel shift assay detects complexes by their altered migration in electrophoresis.
For experiment [1], the system named is NF-κB. The experiment is described as follows: Binding of NF-κB to DNA, nuclear extracts from TNF-pre-activated cells incubated with curcumin, EMSA. Further details: species or system human. The following applies: nuclear extracts from TNF-pre-activated cells incubated with curcumin 15 minutes, FIG. 2b.
For experiment [2], the system named is NF-κB. The experiment is described as follows: PMA- and H2O2-mediated activation of NF-κB in ML-1a cells, EMSA. The format is cell-based, human. Conditions: curcumin 50 μM 60 minutes preincubation, FIG. 3.
In experiment [3] the test system is NF-κB. The experiment is described as follows: TNF-dependent NF-κB activation by electrophoretic mobility shift assay in ML-1a cells. The experiment is classed as cell-based, human.
Another experiment has as its system AP-1. The experiment is described as follows: EMSA of AP-1 transcription factor in curcumin-treated cells. The experiment is classed as cell-based, human. Conditions: cells treated with different concentrations of curcumin 60 minutes at 37° C., FIG. 4.
A further experiment concerns p65 subunit of NF-κB. The experiment is described as follows: Western blot for p65 level in cytoplasm and nucleus of TNF-treated ML-1a cells. The format is cell-based, human.
The test system of experiment [4] is NF-κB. Briefly: Effect of reducing agents DTT and DMP on inhibition of TNF-induced NF-κB activation, EMSA. The experiment is classed as cell-based, human. The following applies: DTT 100 μM or DMP 100 μM, curcumin 50 μM or PAO 2.4 μM, 60 minutes, then 0.1 nM TNF 30 minutes, FIG. 5.

Regarding `COc1cc(/C=C/C(=O)CC(=O)/C=C/c2ccc(O)c(OC)c2)ccc1O` [curcumin, diferuloylmethane], the “effect on TNF-induced phosphorylation and degradation of IκBα” value in the experiment on IκBα is “abolished”. For the same compound, the “effect on the Sp1 transcription factor” value with Sp1 is recorded as “no effect”. In the experiment on NF-κB [1], the “effect on the ability of NF-κB to bind to the DNA” value was “did not modify”. The “inhibition of hydrogen peroxide-induced activation of NF-κB” value in the experiment on NF-κB [2] (H2O2 0.5 mM 30 minutes) is listed as “completely blocked”. Also, the “inhibition of PMA-induced activation of NF-κB” value in the experiment with NF-κB [2] (PMA 25 ng/ml 30 minutes) is “completely blocked”. In addition, in the experiment on NF-κB [3] (20 μM curcumin 60, 30 and 10 minutes prior to TNF 0.1 nM, TNF 30 minutes, FIG. 1b), the “inhibition of TNF response, pretreatment with curcumin” value is recorded as “inhibited only when cells were pretreated”. Further, the “inhibition of TNF response, cotreatment of cells with TNF and curcumin” value with NF-κB [3] (20 μM curcumin added at the same time as TNF 0.1 nM, TNF 30 minutes, FIG. 1b) is recorded as “not effective”. In the experiment on NF-κB [3] (50 μM curcumin 60 minutes pretreatment, 10 nM TNF for different times, FIG. 1c), the “inhibition of NF-κB activation induced by 10 nM TNF” value was “completely inhibit”. Moreover, the “activation of NF-κB by the compound by itself” value in the experiment with NF-κB [3] (ML-1a cells, without TNF, EMSA) was “did not activate”. The “effect on DNA binding of AP-1 transcription factors” value in the experiment with AP-1 is on record as “down-modulated”. Besides, the “effect on TNF-dependent change in nuclear and cytoplasmic p65 levels (translocation of p65 to the nucleus)” value with p65 subunit of NF-κB (curcumin 50 μM 60 minutes pretreatment, TNF 0.1 nM, FIGS. 6B and 6C) is recorded as “abolished”. Moreover, in the experiment with p65 subunit of NF-κB (curcumin-treated ML-1a cells, western blot), the “down-modulation of the cytoplasmic pool of p65 subunit of NF-κB” value was “not down-modulated”. The “reversal by DTT and DMP of the inhibition of TNF-induced NF-κB activation” value in the experiment on NF-κB [4] is given as “did not reverse”.
